In PubChem BioAssay (NCI):
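Growth conditions: 96-well plates. Treatment: test compound, 48 hours, 5 concentrations. Analysis: linear interpolation between bracketing concentrations; unreached endpoints set to highest concentration. TGI: total growth inhibition.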 Peptide text beside a SMILES is read from it. * marks the point of attachment. OSu = O=C1CCC(=O)N1O*; OBn = c1ccc(CO*)cc1; Bn = c1ccc(C*)cc1

Tests used:
Test in all cases: growth of human tumour cells (NCI), 48 h
CCRF-CEM leukemia = tested on: CCRF-CEM leukemia
EKVX NSCLC = tested on: EKVX NSCLC
HOP-92 NSCLC = tested on: HOP-92 NSCLC
HT29 colon = tested on: HT29 colon
IGROV1 ovarian = tested on: IGROV1 ovarian
MDA-N = tested on: MDA-N
NCI-H23 lung = tested on: NCI-H23 lung
SK-MEL-5 melanoma = tested on: SK-MEL-5 melanoma
UACC-62 melanoma = tested on: UACC-62 melanoma
UO-31 renal = tested on: UO-31 renal

Row | SMILES | TGI (CCRF-CEM leukemia) | TGI (EKVX NSCLC) | TGI (HOP-92 NSCLC) | TGI (HT29 colon) | TGI (IGROV1 ovarian) | TGI (MDA-N) | TGI (NCI-H23 lung) | TGI (SK-MEL-5 melanoma) | TGI (UACC-62 melanoma) | TGI (UO-31 renal)
1 | COc1cc([C@@H]2c3cc4c(cc3[C@@H](Nc3ccc(NC(=O)c5cc(NC(=O)c6cc([N+](=O)[O-])cn6C)cn5C)cc3)[C@H]3COC(=O)[C@H]23)OCO4)cc(OC)c1O | > 37.8 µM | > 64.2 µM | > 39.2 µM | 98.4 µM | > 39 µM | > 100 µM | > 48.7 µM | > 33.5 µM | > 100 µM | > 53 µM
2 | CC1=CC(=O)/C(=C/N2CCNC2=S)C(=O)O1 | > 100 µM | > 100 µM | > 100 µM | > 100 µM | > 100 µM | > 100 µM | > 100 µM | > 100 µM | > 100 µM | > 100 µM
3 | CCOC(=O)O/N=C1/C(c2c(O)[nH]c3ccccc23)=Nc2ccccc21 | 16.6 µM | 13.5 µM | > 100 µM | 46.7 µM | 30.9 µM | 19.3 µM | 25.5 µM | 6.99 µM | 23 µM | 40.6 µM
4 | O=[N+]([O-])c1ccc(-[n+]2ccc3ccccc3c2)c([N+](=O)[O-])c1 | 5.38 µM | 19.4 µM | 5.29 µM | 6.5 µM | 8.61 µM | 6 µM | 6.03 µM | 6.56 µM | 5.53 µM | 9.28 µM
5 | Cc1nc2ccccc2cc1C[N+]12CN3CN(CN(C3)C1)C2 | 23.7 µM | 50 µM | > 100 µM | 60.8 µM | > 100 µM | 65.6 µM | 33.9 µM | 32.8 µM | 33.1 µM | 57.4 µM
6 | C=C1[C@H](OCC(C)C)[C@@H](OC(=O)C(C)CC)[C@@H](O)C(C)(C)/C=C/[C@H](C)C(=O)[C@@]2(O)C[C@H](C)[C@H](O)[C@@H]2[C@H]1OC(=O)C(C)CC (some centres undefined) | > 9.76 µM | > 20 µM | > 20 µM | 9.87 µM | > 20 µM | > 20 µM | > 15.8 µM | > 10.8 µM | > 20 µM | > 5.12 µM
7 | Cc1nc(N)nc(N)c1N1CCN(Cc2ccccc2)CC1 | > 100 µM | > 100 µM | > 100 µM | > 100 µM | > 100 µM | > 100 µM | > 100 µM | > 100 µM | > 100 µM | > 100 µM
8 | O=C(CCC(=O)OCC1OC(O)(CC2OC(CO)C(O)C(O)C2O)C(O)C1O)OCc1ccccc1 (centres undefined) | > 100 µM | > 100 µM | > 100 µM | > 100 µM | > 100 µM | > 100 µM | > 100 µM | > 100 µM | > 100 µM | > 100 µM
9 | CCOC(=O)/C=C(/C(=O)OCC)n1ccc(=O)[nH]c1=O | 3.99 µM | 23 µM | 4.32 µM | 36 µM | 31.1 µM | 25.6 µM | 30.4 µM | 31 µM | 25.7 µM | 27.8 µM
10 | CSc1nc(=O)c(C#N)c(-c2ccccc2)n1C1OC(COC(C)=O)C(OC(C)=O)C(OC(C)=O)C1OC(C)=O (centres undefined) | > 100 µM | > 100 µM | > 100 µM | > 100 µM | > 100 µM | > 100 µM | > 100 µM | > 100 µM | > 100 µM | > 100 µM
11 | Cc1ccc(C2(c3ccc(C)c(O)c3C)CCN(C)CC2)c(C)c1O | > 100 µM | > 100 µM | > 100 µM | > 100 µM | > 100 µM | > 100 µM | > 100 µM | > 100 µM | > 100 µM | > 100 µM
12 | Cc1ccnc2sc3ccccc3c(=O)c12 | > 100 µM | 94.4 µM | > 100 µM | 93.3 µM | > 100 µM | > 100 µM | > 100 µM | 73.4 µM | 63 µM | 81.8 µM
13 | CCOC(=O)c1ccc(NC(NC(=O)CC)(C(F)(F)F)C(F)(F)F)cc1 | > 100 µM | > 100 µM | > 100 µM | > 100 µM | > 100 µM | > 100 µM | > 100 µM | > 100 µM | > 100 µM | > 100 µM
14 | CN(C)/C=N/S(=O)(=O)c1nn2c(C=O)c(-c3cc4ccccc4oc3=O)nc2s1 | 7.33 µM | 43 µM | 19.2 µM | 2.97 µM | 25.1 µM | 20.7 µM | 42.4 µM | 12 µM | 27.5 µM | 4.84 µM
15 | CC(C)CC(NC(=O)C(N)CCC(=O)OCc1ccccc1)C(=O)NC(COCc1ccccc1)C(=O)NC(Cc1ccccc1)C(=O)ON1C(=O)CCC1=O (centres undefined) (H-E(OBn)LS(Bn)F-OSu; configuration not given here) | 82.1 µM | > 100 µM | 39.8 µM | > 100 µM | 72.6 µM | 47.6 µM | 54.3 µM | 35.8 µM | 70 µM | 59 µM
16 | CC(C)(CN1CCCCC1)C(=O)/C=C/c1c(Cl)cccc1Cl | 2.73 µM | 3.24 µM | 2.34 µM | 2.89 µM | 1.13 µM | 2.38 µM | 2.84 µM | 2.92 µM | 2.61 µM | 2.27 µM
17 | Nc1ccc(-c2nc3cc(F)ccc3s2)cc1 | > 100 µM | > 46.6 µM | > 93.1 µM | > 100 µM | > 77.9 µM | > 100 µM | > 46.5 µM | > 100 µM | > 100 µM | > 100 µM

Row | SMILES | TGI (CCRF-CEM leukemia) | TGI (EKVX NSCLC) | TGI (HOP-92 NSCLC) | TGI (HT29 colon) | TGI (IGROV1 ovarian) | TGI (MDA-N) | TGI (NCI-H23 lung) | TGI (SK-MEL-5 melanoma) | TGI (UACC-62 melanoma) | TGI (UO-31 renal)
18 | CCOC(=O)C1=CN(C(=O)c2ccccc2)CCC1Cc1ccccc1 (centres undefined) | 54.5 µM | > 100 µM | 54.5 µM | 35.1 µM | > 100 µM | 44.4 µM | > 100 µM | 28.3 µM | 31.4 µM | 77.9 µM
19 | c1cn[nH]c1 | > 10 µM | > 10 µM | > 10 µM | > 10 µM | > 10 µM | > 10 µM | > 10 µM | > 10 µM | > 10 µM | > 10 µM
20 | OC1(c2ccc(Cl)cc2)c2ccccc2C2=NCc3ccccc3CN21 (centres undefined) | > 69.6 µM | 20.6 µM | 41.4 µM | 27.8 µM | 9.63 µM | 26.5 µM | 23.7 µM | 33.6 µM | 26.7 µM | 22.3 µM
21 | O=C(NC(CO)CO)c1ccc2cc(C(=O)N3CC(CCl)c4ccc([N+](=O)[O-])cc43)[nH]c2c1 (centres undefined) | > 100 µM | > 100 µM | > 100 µM | > 100 µM | > 100 µM | > 100 µM | > 100 µM | > 100 µM | > 100 µM | > 100 µM
22 | CC(CC(C)(C)[N+](C)(C)C)[N+](C)(C)C (centres undefined) | > 100 µM | > 100 µM | > 100 µM | > 100 µM | > 100 µM | > 100 µM | > 100 µM | > 100 µM | > 100 µM | > 100 µM
23 | O=C(CC(=O)Nc1ccccc1Cl)NNC(Sc1ccccc1)c1cc(N=Nc2ccc(Br)cc2)ccc1O (centres undefined) | 6.21 µM | > 10 µM | 6.68 µM | > 10 µM | 5.53 µM | > 10 µM | 7.39 µM | 3.95 µM | 3.9 µM | 3.96 µM
24 | c1csc(-c2nnc(C34CC5CC(CC(C5)C3)C4)o2)c1 | 47.4 µM | > 100 µM | 54.8 µM | 36.3 µM | > 100 µM | > 100 µM | > 100 µM | 30.8 µM | > 100 µM | 15.6 µM
25 | Cc1ccc(CC(=O)Nc2ccc(NC(=O)CNC(=O)/C=C/c3ccc(-c4ccccc4)cc3)cc2C(=O)c2ccccc2)cc1 | 17.1 µM | 15.8 µM | 15.4 µM | 2.99 µM | 21.7 µM | 20.9 µM | 4.71 µM | 6.32 µM | 30.8 µM | 24.7 µM
26 | Cc1ccsc1/C=N/Nc1ccccn1 | > 100 µM | 96.5 µM | > 100 µM | > 100 µM | > 100 µM | > 100 µM | > 100 µM | 54.4 µM | > 100 µM | > 100 µM
27 | c1ccc(-c2nc3ccccc3n3nnnc23)cc1 | > 100 µM | > 100 µM | > 100 µM | > 100 µM | > 100 µM | > 100 µM | > 100 µM | > 100 µM | > 100 µM | 1.57 µM
28 | CCCC1C(C#N)(C#N)C(C#N)=C(N)C1(C)C(C)=O (centres undefined) | > 100 µM | > 100 µM | > 100 µM | > 100 µM | > 100 µM | > 100 µM | > 100 µM | > 100 µM | > 100 µM | > 100 µM
29 | O=C1C=C(NCCc2cc(Br)c(O)c(Br)c2)C(=O)c2[nH]cnc21 | 41.7 µM | > 100 µM | 82.3 µM | 80.8 µM | > 100 µM | 33.6 µM | 50.8 µM | 29 µM | 40 µM | > 100 µM
30 | COc1cnnc2c(C)c(-c3ccccc3)nn12 | > 100 µM | > 100 µM | > 100 µM | > 100 µM | > 100 µM | > 100 µM | > 100 µM | > 100 µM | > 100 µM | > 100 µM
31 | CC(C)C(/C=C/c1ccccc1)=N\NC(=S)NN | > 89.9 µM | > 100 µM | > 100 µM | > 100 µM | > 100 µM | > 31.6 µM | > 100 µM | > 100 µM | > 100 µM | > 100 µM
32 | CN1CCN(c2c(O)c3c(c(O)c2Cl)C(=O)C=CC3=O)CC1 | 0.41 µM | 3.04 µM | 0.598 µM | 1.38 µM | 2.6 µM | 1.2 µM | 1.54 µM | 1.11 µM | 2.82 µM | 1.22 µM
33 | Cc1nn(C(=O)c2ccc(Cl)cc2)c2c1C(c1ccco1)SC(N)=N2 (centres undefined) | > 10 µM | > 10 µM | > 10 µM | > 10 µM | > 10 µM | > 10 µM | > 10 µM | > 10 µM | > 10 µM | –
